Results published in patent US20090306159A1, “Inhibition of Intermediate-Conductance Calcium Activated Potassium Channels in the Treatment and/or Prevention of Atherosclerosis” (The Regents of the University, priority 2005, published 2009).
Each block holds one compound with its values, some of them ahead of it.

Columns and labels:
[1] = system: human coronary artery smooth muscle cells (HCSMCs); experiment: Cell proliferation assay (cell count with hemocytometer) in PDGF-stimulated HCSMCs; assay type: cell-based; conditions: for cell number of HCSMCs: 48 hours, n=7
Experimental: (§1) Cell proliferation assays: Cell proliferation assays were performed as previously reported. Briefly, quiescent HCSMCs seeded at a density of 4×10^4/well in 6-well plates were stimulated by 20 ng/mL PDGF in the presence or absence of 10^−7 M TRAM-34, a selective IKCa blocker. Forty eight hours after stimulation, the number of cells was counted with a hemocytometer (MARIENFELD, Lauda-Konigshofen Germany). In another set of experiments, a BrdU cell proliferation assay was also performed with quiescent cells in 96-well plates at a density of 1×10^4/well according to the manufacturer's instructions (Colorimetric Cell Proliferation ELISA, Roche, Penzberg Germany). In this study, BrdU (10^−5 M in medium) was applied 24 hours prior to the measurements.

[2] = system: human coronary artery smooth muscle cells (HCSMCs); experiment: BrdU cell proliferation assay (DNA synthesis) in HCSMCs; assay type: cell-based
Experimental: as §1

c-fos = experiment: Western blot of c-fos expression in HCSMCs; assay type: cell-based, human; conditions: PDGF + TRAM-34
Description: Western blot analysis: Total cell lysates or membrane fractions were harvested and protein samples separated on an electrophoresis gel by SDS-PAGE and then transferred to a PVDF membrane. The gels were stained in Coomassie blue to confirm equal protein loading. Membranes were blocked with 10% nonfat dried milk, blotted with primary antibodies (BKCa α-subunit [Affinity BioReagents], c-fos [Santa Cruz, Inc.] and IKCa) and subsequently probed with a horseradish peroxidase-labeled donkey anti-rabbit antibody (1:5,000˜10,000 [Santa Cruz, Inc.]). The bound antibody was detected by chemiluminescence (ECL Plus, Amersham). The polyclonal primary antibody against human and mouse IKCa was obtained from sera of rabbits immunized using oligopeptides with following amino acids sequences; H-LNASYRSIGALNQVRC-NH2 (S4-5 of human and mouse IKCa).

[3] = system: human coronary artery smooth muscle cells (HCSMCs); experiment: Transwell cell migration assay in HCSMCs; assay type: cell-based
Experimental: Cell migration assay: A Cell migration assay was carried out with the Transwell system (Corning, Acton, Mass.) as previously reported. Briefly, cells (3×10^5 cells/mL) were seeded onto the upper chamber of Transwells, and the lower chamber was filled with serum-free medium containing 20 ng/ml PDGF. TRAM-34 (10^−8˜10^−7 M) was added to both chambers. After 8-hour stimulation, migrated cells were fixed and stained with the Diff-Quick Stain (IMEB Inc. Chicago, Ill.) and counted under a microscope.

ApoE knockout mice = experiment: Development of atherosclerosis in ApoE knockout mice on high-cholesterol diet (long-term IKCa1 blockade); assay type: in vivo, mouse; conditions: ApoE KO mice, long-term TRAM-34
Experimental: Mouse treatment: C57BL/6J male mice (wild type [WT] n=11 and ApoE deficient type [EKO] n=38, The Jackson Laboratory) were used. EKO mice were weaned at 4 weeks of age onto a high-cholesterol diet (1.3% cholesterol; TD 96121, Harian/Teklad) and treated with daily subcutaneous injection of TRAM-34 (120 mg/kg/day) or vehicle (peanut oil) for 12 weeks. Littermate war mice were used as the control group in the experiments. Mice were provided diet and water ad libitum and maintained on a 12-hour light/dark cycle. All animal experiments were conducted according to the Guidelines for Animal Experiments at Medical College of Wisconsin.
Histological analysis of atherosclerosis in mouse aortas: Isolation of aortas and quantification of atherosclerosis were performed as previously described. Briefly, aortas (from aortic arch to iliac bifurcation) were opened longitudinally, pinned onto a silicon-coated dish, fixed with 4% paraformaldehyde, and stained in 1.0% (v/w) Sudan III solution (The Science Company, Denver, Colo.). Images were acquired using a digital camera (C-755, Minolta), and the surface area of atherosclerotic lesions was measured as the percentage of total area of the opened aorta using imaging software, MetaMorph (Universal Imaging Corp).

[4] = Body weight, heart weight, blood pressure, heart rate, plasma cholesterol and deaths in treated mice; assay type: in vivo, mouse
Experimental: Mouse treatment: C57BL/6J male mice (wild type [WT] n=11 and ApoE deficient type [EKO] n=38, The Jackson Laboratory) were used. […] Littermate war mice were used as the control group in the experiments. Mice were provided diet and water ad libitum and maintained on a 12-hour light/dark cycle. All animal experiments were conducted according to the Guidelines for Animal Experiments at Medical College of Wisconsin.
Hemodynamic analysis of mice: At 16 weeks of age, mice were anesthetized, and right femoral arteries were cannulated for continuous measurement of arterial pressure and heart rate (pressure transducer; Bioresearch Center, Nagoya, Japan) and recorded continuously by computer for 30 min.
Plasma lipid analysis: Plasma was obtained by centrifugation of blood and stored at −80° C. until each assay was performed. Plasma cholesterol levels were analyzed by General Medical Laboratories (Madison, Wis.).

IKCa mRNA = experiment: Real-time RT-PCR of IKCa mRNA in HCSMCs; assay type: cell-based, human; conditions: PDGF 20 ng/ml, at 6 h, n=5
Description: (sense) and [NT] (antisense); for [NT] (sense) and [NT] (antisense).

BKCa [5] = target: BKCa (Homo sapiens, UniProt Q12791); experiment: Videomicroscopy: vasodilation of human coronary arterioles to BKCa opener; conditions: endothelium-denuded human vessels, 3×10^-6 M, n=3
BKCa (Homo sapiens, UniProt Q12791), sequence (Q12791 whole entry): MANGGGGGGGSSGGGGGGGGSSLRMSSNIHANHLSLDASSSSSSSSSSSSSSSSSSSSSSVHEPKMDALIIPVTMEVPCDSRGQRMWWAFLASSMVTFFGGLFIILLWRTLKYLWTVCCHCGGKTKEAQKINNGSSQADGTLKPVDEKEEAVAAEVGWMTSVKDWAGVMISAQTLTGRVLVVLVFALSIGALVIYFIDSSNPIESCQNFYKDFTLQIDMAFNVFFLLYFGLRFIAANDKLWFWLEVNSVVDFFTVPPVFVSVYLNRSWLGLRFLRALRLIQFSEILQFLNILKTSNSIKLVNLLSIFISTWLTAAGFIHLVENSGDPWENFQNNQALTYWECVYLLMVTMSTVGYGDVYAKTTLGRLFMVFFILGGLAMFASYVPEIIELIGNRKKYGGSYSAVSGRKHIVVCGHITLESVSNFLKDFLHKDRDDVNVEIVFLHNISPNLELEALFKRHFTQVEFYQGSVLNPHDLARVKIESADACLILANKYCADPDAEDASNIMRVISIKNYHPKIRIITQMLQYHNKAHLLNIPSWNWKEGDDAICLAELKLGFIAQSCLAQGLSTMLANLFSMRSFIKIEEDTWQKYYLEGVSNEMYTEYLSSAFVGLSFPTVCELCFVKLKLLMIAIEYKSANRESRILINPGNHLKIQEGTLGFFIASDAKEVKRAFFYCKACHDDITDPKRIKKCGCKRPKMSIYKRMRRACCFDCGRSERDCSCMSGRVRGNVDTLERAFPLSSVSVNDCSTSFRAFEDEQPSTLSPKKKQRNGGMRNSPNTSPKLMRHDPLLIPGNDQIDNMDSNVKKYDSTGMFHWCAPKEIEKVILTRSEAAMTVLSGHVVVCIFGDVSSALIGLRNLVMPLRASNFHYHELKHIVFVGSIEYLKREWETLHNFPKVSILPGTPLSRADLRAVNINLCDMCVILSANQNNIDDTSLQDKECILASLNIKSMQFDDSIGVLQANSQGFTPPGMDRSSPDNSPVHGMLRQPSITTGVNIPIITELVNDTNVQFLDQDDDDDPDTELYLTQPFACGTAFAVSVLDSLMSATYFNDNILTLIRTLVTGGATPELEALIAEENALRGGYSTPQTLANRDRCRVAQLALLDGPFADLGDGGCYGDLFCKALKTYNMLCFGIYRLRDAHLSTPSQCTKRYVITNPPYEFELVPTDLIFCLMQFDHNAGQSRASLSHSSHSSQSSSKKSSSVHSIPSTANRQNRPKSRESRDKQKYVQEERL
BKCa (Homo sapiens, UniProt Q12791), sequence (Q16558 whole entry partner): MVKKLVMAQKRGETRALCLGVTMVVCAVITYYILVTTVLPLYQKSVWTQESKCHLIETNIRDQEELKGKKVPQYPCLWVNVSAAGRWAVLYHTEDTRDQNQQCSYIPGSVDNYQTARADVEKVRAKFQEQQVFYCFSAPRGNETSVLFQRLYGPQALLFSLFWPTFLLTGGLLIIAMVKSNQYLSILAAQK

BKCa [6] = target: BKCa (Mus musculus, UniProt Q08460); experiment: Videomicroscopy: vasodilation of mouse carotid artery segments to BKCa opener; conditions: endothelium-denuded carotid artery segments
BKCa (Mus musculus, UniProt Q08460), sequence (Q08460 whole entry): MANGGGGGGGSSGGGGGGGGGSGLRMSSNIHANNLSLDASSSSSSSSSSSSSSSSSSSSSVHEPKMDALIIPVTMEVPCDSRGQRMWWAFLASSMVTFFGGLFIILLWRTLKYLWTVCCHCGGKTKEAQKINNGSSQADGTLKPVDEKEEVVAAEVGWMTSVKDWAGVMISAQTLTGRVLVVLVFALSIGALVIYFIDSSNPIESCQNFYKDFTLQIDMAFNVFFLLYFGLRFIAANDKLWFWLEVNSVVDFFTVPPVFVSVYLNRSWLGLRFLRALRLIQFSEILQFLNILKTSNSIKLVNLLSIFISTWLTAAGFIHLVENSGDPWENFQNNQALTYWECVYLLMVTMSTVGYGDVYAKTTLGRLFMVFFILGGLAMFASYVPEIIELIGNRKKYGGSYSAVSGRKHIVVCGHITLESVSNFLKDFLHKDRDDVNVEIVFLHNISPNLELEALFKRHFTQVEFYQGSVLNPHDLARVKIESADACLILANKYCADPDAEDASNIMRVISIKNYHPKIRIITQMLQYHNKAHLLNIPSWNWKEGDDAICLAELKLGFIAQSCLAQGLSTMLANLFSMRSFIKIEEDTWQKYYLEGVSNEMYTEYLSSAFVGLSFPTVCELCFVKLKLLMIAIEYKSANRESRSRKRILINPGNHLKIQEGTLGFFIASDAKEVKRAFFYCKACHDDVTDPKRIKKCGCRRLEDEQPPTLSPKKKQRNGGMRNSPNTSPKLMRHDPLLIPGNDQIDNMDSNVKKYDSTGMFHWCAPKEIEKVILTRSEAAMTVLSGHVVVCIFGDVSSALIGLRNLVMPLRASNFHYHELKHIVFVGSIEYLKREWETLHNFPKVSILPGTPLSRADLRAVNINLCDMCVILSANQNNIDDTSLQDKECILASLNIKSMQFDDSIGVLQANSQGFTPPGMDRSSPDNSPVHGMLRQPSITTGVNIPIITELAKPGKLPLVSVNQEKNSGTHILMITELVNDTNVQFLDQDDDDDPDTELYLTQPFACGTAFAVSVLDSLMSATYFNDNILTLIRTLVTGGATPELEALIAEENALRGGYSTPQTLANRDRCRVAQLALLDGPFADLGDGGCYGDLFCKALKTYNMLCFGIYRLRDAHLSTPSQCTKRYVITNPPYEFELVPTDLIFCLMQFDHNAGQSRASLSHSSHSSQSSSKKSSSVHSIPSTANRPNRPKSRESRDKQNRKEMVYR
BKCa (Mus musculus, UniProt Q08460), sequence (Q8CAE3 whole entry partner): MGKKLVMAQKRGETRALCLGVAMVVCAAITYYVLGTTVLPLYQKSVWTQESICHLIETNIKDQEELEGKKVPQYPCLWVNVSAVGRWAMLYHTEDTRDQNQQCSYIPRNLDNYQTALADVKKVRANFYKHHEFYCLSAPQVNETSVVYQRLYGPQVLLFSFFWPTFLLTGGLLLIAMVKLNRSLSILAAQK

[7] = among the groups (WT, ApoE KO vehicle, ApoE KO TRAM-34)
[8] = long-term treatment, anesthetized mice

Compound: Clc1ccccc1C(c1ccccc1)(c1ccccc1)n1cccn1 [TRAM-34, 1-[(2-chlorophenyl)diphenylmethyl]-1H-pyrazole]
cell number of HCSMCs ([1]; PDGF + TRAM-34 at 10^-7 M): 1.1±0.1 fold of control
cell viability ([1]; PDGF+TRAM-34 or TRAM-34 alone, HCSMCs): did not affect cell viability
effect on HCSMC proliferation ([1]; in the absence of PDGF): had no effect
DNA synthesis (BrdU incorporation) ([2]; PDGF + TRAM-34, n=26): 2.2±0.2 fold of control
effect on DNA synthesis ([2]; TRAM alone, no PDGF, n=6): had no effect
PDGF-induced up-regulation of c-fos protein (c-fos): markedly reduced
HCSMC migration ([3]; PDGF + TRAM-34, 8-hour stimulation, n=4): 2392 fold of control
accumulation of macrophages in the plaques (ApoE knockout mice): decreased
nitric oxide-mediated component of endothelium-dependent vasodilation (ApoE knockout mice): restored
plasma level of MCP-1 (ApoE knockout mice): reduced
plasma level of TNF-alpha (ApoE knockout mice): reduced
deaths during treatment ([4]; 14-week treatment, unknown reasons, same in vehicle group): One mouse
plasma cholesterol levels ([4]; ApoE KO mice, TRAM-34 vs vehicle): no significant difference
body weight [4, 7]: no significant differences
heart weight [4, 7]: no significant differences
blood pressure [4, 8]: unaltered
heart rate [4, 8]: unaltered

Compound: platelet-derived growth factor-BB [PDGF]
cell number of HCSMCs ([1]; PDGF alone (20 ng/mL)): 1.6±0.1 fold of control
DNA synthesis (BrdU incorporation) ([2]; PDGF alone, n=26): 2.8±0.3 fold of control
HCSMC migration ([3]; PDGF alone (20 ng/ml), 8-hour stimulation, n=10): 32±4 fold of control
IKCa mRNA expression, max response (IKCa mRNA): 4.2±1.0 fold

Compound: COc1ccc(Cl)cc1C(=O)NCCc1ccc(S(=O)(=O)NC(=O)NC2CCCCC2)cc1 [Glibenclamide, reference compound]
effect on PDGF-induced HCSMC proliferation ([1]; with PDGF, data not shown, n=4): had no effect

vasodilation (BKCa [5]; CAD subjects): 31±3%
vasodilation (BKCa [5]; non-CAD subjects): 56±6%
% max. dilation (BKCa [6]; ApoE KO mice): 9±3%
% max. dilation (BKCa [6]; WT mice, 10^-5 M): 55±10%
Compound: C=C[C@@]1(C)C=C2CC[C@@H]3[C@](C)(CCC[C@@]3(C)C(=O)O)[C@H]2CC1 [pimaric acid]
